Data set [1] has as its system Candida sp. Kind of data set: Paper disk method microbicidal test. Type of data set: cell-based. The following applies: 0 mg/mL control: 11.86 (flavone, 40% DMSO), — (catechin). The procedure: (§1) As microbicidal test method for 5,7,4′-trihydroxy-3′,5′-dimethoxyflavone, the paper disk method was employed, by which method the microbicidal activity can be judged even in cases where a solvent has some influences.
(§2) In paper disk method, sample solutions having various sample concentration are prepared, and the sample solution was absorbed in a special paper disk, followed by drying the paper disk. Onto the plate which is made by mixing a prepared bacterial suspension with agar medium, the paper disks are placed. If the sample has a microbicidal activity, the inhibition ring which indicates the inhibition of bacterial growth is formed such that the center of the ring is coincident with the paper disk. The degree of a microbicidal activity is judged based on the size of the inhibition ring.
(§3) First, 4 mg of 5,7,4′-trihydroxy-3′,5′-dimethoxyflavone sample was dissolved in 200 μL to prepare 20 mg/mL sample solution. To 100 μL of this 20 mg/mL sample solution, 100 μL of sterilized water was added to prepare 200 μL of 10 mg/mL sample solution. To the solution, 60 μL DMSO and 140 μL of sterilized water were added to prepare 400 μL of 5.0 mg/mL sample solution. DMSO was used in the concentration of 40%, because the sample precipitated from 30% DMSO. To 350 μL of 5.0 mg/mL sample solution, 140 μL DMSO and 210 μL of sterilized water were added to prepare 700 μL of 2.5 mg/mL sample solution. In the same manner, 1.25 mg/mL and 0.625 mg/mL sample solutions were prepared. As a control, a solution containing 40% DMSO and 60% sterilized water was prepared. […] In a paper disk (8.12 mm diameter), 70 μL of these solutions each was absorbed, and the paper disks were dried for a day.
(§4) As test bacteria, Staphylococcus aureus, Salmonella sp., Yersinia enterocolitica, Pseudomonas aeruginosa, and Candida sp. were used. These bacteria were mixed with 2 mL of sterilized water to prepare bacterial suspensions having turbidity 1 (10^8/mL). The plate agar was made by mixing 0.2 mL of the bacterial suspension with 19.8 mL of BHI medium. The dried paper disk was placed onto the plate agar, and the plate was incubated in an incubator at 37° C., followed by assessing the activity. In the Table, (-) represents that no microbicidal activity was observed.

Data set [2] relates to Pseudomonas aeruginosa. Kind of data set: Paper disk method microbicidal test. Type of data set: cell-based. The following applies: for size of the inhibition ring: 0 mg/mL control: 12.33 (flavone, 40% DMSO), — (catechin). The procedure: as §1, §2, §3, §4
For data set [3], the system named is Salmonella sp. Briefly: Paper disk method microbicidal test. Type of data set: cell-based. The following applies: for size of the inhibition ring: 0 mg/mL control: 12.35 (flavone, 40% DMSO), — (catechin). Here is the method: as §1, §2, §3, §4
The test system of data set [4] is Yersinia enterocolitica. Briefly: Paper disk method microbicidal test. Type of data set: cell-based. The following applies: 0 mg/mL control: 15.65 (flavone, 40% DMSO), — (catechin). The procedure:
as §1, §2, §3, §4

A short description of data set [5]: Solubility in DMSO observed during sample preparation. Type of data set: physicochemical. The following applies: 30% DMSO; 40% DMSO used instead. Here is the method: First, 400 mg of sample was dissolved in 1 mL of DMSO to prepare 400 mg/mL sample solution. Then 0.5 mL of this 400 mg/mL sample solution was diluted 2-fold to prepare 200 mg/mL sample solution. In the same manner, sample solutions of 100 mg/mL, 50.0 mg/mL, and 25.0 mg/mL were prepared. In addition, 300 mg/mL sample solution was prepared. Thereafter, 0.2 mL of these sample solutions each was mixed with 19.8 mL of BHI (Brain Heart Infusion Agar, Becton Dickinson, MD) medium, thereby preparing agar plates having the sample concentration of 4.0 mg/mL, 3.0 mg/mL, 2.0 mg/mL, 1.0 mg/mL, 0.5 mg/mL, and 0.25 mg/mL in dishes. […] Sterilized water was used for dissolving catechin, because catechin was insoluble in DMSO.
First, 4 mg of 5,7,4′-trihydroxy-3′,5′-dimethoxyflavone sample was dissolved in 200 μL to prepare 20 mg/mL sample solution. To 100 μL of this 20 mg/mL sample solution, 100 μL of sterilized water was added to prepare 200 μL of 10 mg/mL sample solution. To the solution, 60 μL DMSO and 140 μL of sterilized water were added to prepare 400 μL of 5.0 mg/mL sample solution. DMSO was used in the concentration of 40%, because the sample precipitated from 30% DMSO. To 350 μL of 5.0 mg/mL sample solution, 140 μL DMSO and 210 μL of sterilized water were added to prepare 700 μL of 2.5 mg/mL sample solution. In the same manner, 1.25 mg/mL and 0.625 mg/mL sample solutions were prepared. […]

The mark [6] stands for this setting: 0.625 mg/mL solution on 8.12 mm paper disk.
[7] abbreviates: 1.25 mg/mL solution on 8.12 mm paper disk.
The mark [8] stands for this setting: 2.5 mg/mL solution on 8.12 mm paper disk.

Molecules are shown by their SMILES. Entries after “also recorded” stand apart in the source; their conditions may differ.

With `COc1cc(-c2cc(=O)c3c(O)cc(O)cc3o2)cc(OC)c1O` [5,7,4′-Trihydroxy-3′,5′-Dimethoxyflavone, 5,7,4′-trihydroxy-3′,5′-dimethoxyflavone], the “size of the inhibition ring” value was 11.86 in data set [1] (setting [6]); 12.30 in data set [1] (setting [7]); 11.90 in data set [1] (setting [8]); 15.46 in data set [2] (setting [6]); 18.54 in data set [2] (setting [7]); 19.20 in data set [2] (setting [8]). The “size of the inhibition ring” value in data set [3] (setting [6]) was 12.35; in data set [3] (setting [7]), 13.82; in data set [3] (setting [8]) it was 16.65; in data set [4] (setting [6]), 15.67; in data set [4] (setting [7]), 15.76; in data set [4] (setting [8]) it was 15.76. Besides, the “microbicidal activity (in words)” value in data set [2] (paper disk method) and in data set [3] (paper disk method) was “had a microbicidal activity; also recorded: very strong even compared to catechin” each time. The “solubility in aqueous DMSO” value in data set [5] was “precipitated”.
